From the supplement of paper PMC10307832

Compound: CN1CCN(CC1)C2=CC(=C(C=C2)NC3=NC=C4C(=N3)N(C5=CC=CC=C5C(=O)N4C)C)OC [XMD8-85] + CC(=O)c1c(C)c2cnc(Nc3ccc(N4CCNCC4)cn3)nc2n(C2CCCC2)c1=O [Palbociclib] (partner 0.5 µM)
Experiment: relative viability (nuclei count vs DMSO), 5 days (fraction); higher = more cells survive
Settings: first compound 0.08 µM
Procedure, shortened: (§1)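 Lung cancer cell lines were seeded in 1536-well plates and dosed by pin tool the next day, with either a single drug or a fixed anchor-drug dose combined with five library-drug doses (not always all listed) spaced in √10 steps. Five days later, one step fixed the cells and stained their nuclei (final 0.05% Triton X-100, 1% formaldehyde, 1 ug/ml Hoechst), and nuclei were counted on 4× images. Relative viability is the nuclei count in treated wells divided by the count in vehicle wells, and each value is the median of duplicate plates.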

Row | Cell Line | relative viability
1 | 201T | 0.342
2 | A-427 | 0.521
3 | ABC-1 | 0.468
4 | BEN | 0.466
5 | CAL-12T | 0.308
6 | COR-L23 | 0.269
7 | COR-L 105 | 0.421
8 | ChaGo-K-1 | 0.99
9 | EKVX | 0.285
10 | EMC-BAC-2 | 0.494
11 | EPLC-272H | 0.284
12 | H3255 | 0.33
13 | HARA | 0.278
14 | HCC-15 | 0.728
15 | HCC-44 | 0.993
16 | HCC-78 | 0.544

Row | Cell Line | relative viability
17 | HCC-366 | 0.316
18 | HCC-827 | 0.505
19 | HOP-62 | 0.512
20 | LC-2-ad | 0.482
21 | LCLC-97TM1 | 0.192
22 | LCLC-103H | 0.483
23 | LK-2 | 0.554
24 | LOU-NH91 | 0.536
25 | LU99A | 0.367
26 | LXF-289 | 0.581
27 | NCI-H23 | 0.488
28 | NCI-H322M | 0.466
29 | NCI-H358 | 0.244
30 | NCI-H441 | 0.206
31 | NCI-H1648 | 0.251

Same assay, conditions: first compound 0.253 µM

Row | Cell Line | relative viability
32 | 201T | 0.321
33 | A-427 | 0.544
34 | ABC-1 | 0.598
35 | BEN | 0.449
36 | CAL-12T | 0.499
37 | COR-L23 | 0.234
38 | COR-L 105 | 0.423
39 | ChaGo-K-1 | 0.965
40 | EKVX | 0.369
41 | EMC-BAC-2 | 0.495
42 | EPLC-272H | 0.317
43 | H3255 | 0.323
44 | HARA | 0.287
45 | HCC-15 | 0.705
46 | HCC-44 | 1.06
47 | HCC-78 | 0.459
48 | HCC-366 | 0.298
49 | HCC-827 | 0.472
50 | HOP-62 | 0.463
51 | LC-2-ad | 0.452
52 | LCLC-97TM1 | 0.188
53 | LCLC-103H | 0.445
54 | LK-2 | 0.778
55 | LOU-NH91 | 0.496
56 | LU99A | 0.36
57 | LXF-289 | 0.615
58 | NCI-H322M | 0.447
59 | NCI-H358 | 0.126
60 | NCI-H441 | 0.209
61 | NCI-H1648 | 0.261

Same assay, conditions: first compound 0.8 µM

Row | Cell Line | relative viability
62 | 201T | 0.36
63 | A-427 | 0.571
64 | ABC-1 | 0.781
65 | BEN | 0.475
66 | COR-L23 | 0.269
67 | COR-L 105 | 0.368
68 | ChaGo-K-1 | 0.963
69 | EKVX | 0.446
70 | EMC-BAC-2 | 0.504
71 | EPLC-272H | 0.312
72 | H3255 | 0.285
73 | HARA | 0.279
74 | HCC-15 | 0.751
75 | HCC-44 | 1.08
76 | HCC-78 | 0.564
77 | HCC-366 | 0.375
78 | HCC-827 | 0.424
79 | LC-2-ad | 0.51
80 | LCLC-97TM1 | 0.188
81 | LCLC-103H | 0.489
82 | LK-2 | 0.592
83 | LOU-NH91 | 0.503
84 | LU99A | 0.458
85 | LXF-289 | 0.561
86 | NCI-H23 | 0.525
87 | NCI-H322M | 0.457
88 | NCI-H358 | 0.138
89 | NCI-H441 | 0.197
90 | NCI-H1648 | 0.225

Same assay, conditions: first compound 2.53 µM

Row | Cell Line | relative viability
91 | 201T | 0.34
92 | A-427 | 0.52
93 | ABC-1 | 0.689
94 | BEN | 0.446
95 | CAL-12T | 0.474
96 | COR-L23 | 0.294
97 | COR-L 105 | 0.382
98 | ChaGo-K-1 | 0.931
99 | EKVX | 0.487
100 | EMC-BAC-2 | 0.473
101 | EPLC-272H | 0.306
102 | H3255 | 0.273
103 | HARA | 0.247
104 | HCC-15 | 0.708
105 | HCC-44 | 0.993
106 | HCC-78 | 0.503

Row | Cell Line | relative viability
107 | HCC-366 | 0.291
108 | HCC-827 | 0.505
109 | HOP-62 | 0.378
110 | LC-2-ad | 0.49
111 | LCLC-97TM1 | 0.204
112 | LCLC-103H | 0.484
113 | LK-2 | 0.491
114 | LOU-NH91 | 0.534
115 | LU99A | 0.46
116 | LXF-289 | 0.658
117 | NCI-H23 | 0.441
118 | NCI-H322M | 0.444
119 | NCI-H358 | 0.155
120 | NCI-H441 | 0.195
121 | NCI-H1648 | 0.258

Same assay, conditions: first compound 8 µM

Row | Cell Line | relative viability
122 | 201T | 0.325
123 | A-427 | 0.463
124 | BEN | 0.463
125 | CAL-12T | 0.196
126 | COR-L23 | 0.238
127 | COR-L 105 | 0.409
128 | ChaGo-K-1 | 0.899
129 | EKVX | 0.372
130 | EMC-BAC-2 | 0.458
131 | EPLC-272H | 0.303
132 | H3255 | 0.26
133 | HARA | 0.195
134 | HCC-15 | 0.619
135 | HCC-44 | 0.946
136 | HCC-78 | 0.435
137 | HCC-366 | 0.196
138 | HCC-827 | 0.467
139 | HOP-62 | 0.246
140 | LC-2-ad | 0.39
141 | LCLC-97TM1 | 0.239
142 | LCLC-103H | 0.405
143 | LK-2 | 0.668
144 | LOU-NH91 | 0.514
145 | LU99A | 0.368
146 | LXF-289 | 0.54
147 | NCI-H23 | 0.413
148 | NCI-H322M | 0.431
149 | NCI-H358 | 0.132
150 | NCI-H441 | 0.2
151 | NCI-H1648 | 0.288

Compound: CN1CCN(CC1)C2=CC(=C(C=C2)NC3=NC=C4C(=N3)N(C5=CC=CC=C5C(=O)N4C)C)OC [XMD8-85] + COc1cccc2cc(-c3nc([C@H]4CC[C@H](C(=O)O)CC4)n4ncnc(N)c34)[nH]c12 [OSI-027] (partner 0.5 µM)
Experiment: as above
Settings: first compound 0.08 µM
Procedure, shortened: as §1

Row | Cell Line | relative viability
152 | 201T | 0.88
153 | A-427 | 0.466
154 | ABC-1 | 0.473
155 | BEN | 0.439
156 | CAL-12T | 0.556
